# Test results from patent publication US11505548B2, “Heterocyclic compounds and their use for treatment of helminthic infections and diseases” (Celgene Corporation, priority 2019, dated 2022).
# System: microfilariae of Dirofilaria immitis
# Assay: Dirofilaria immitis, Microfilaria (DiMF) Assay
# Format: cell-based
# Settings: read-out: D. immitis activity level (IC50 or MED)
# Method in brief: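 D. immitis microfilariae were incubated in medium with DMSO-diluted compounds for about 72 h. Survival or paralysis was scored subjectively under the microscope. Values are Minimum Effective Dose (MED).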
row,SMILES,IC50 [nM]
1,"Cc1cccnc1-c1noc(Nc2ccc(N3CCCC3)cn2)n1 [Compound 42, 3-(3-methyl-pyridin-2-yl)-N-(5-(pyrrolidin-1-yl)pyridin-2-yl)-1,2,4-oxadiazol-5-amine]",500 to 5000
2,"c1ccc(-c2ccnc(Nc3nc(-c4ccccn4)no3)c2)cc1 [Compound 246, N-(4-phenyl-pyridin-2-yl)-3-(pyridin-2-yl)-1,2,4-oxadiazol-5-amine]",500 to 5000
3,"CC(C)Oc1ccc(-c2nsc(Nc3ncc(C(=O)NC4CC(F)(F)C4)cc3C(C)C)n2)nc1 [Compound 195, N-(3,3-difluoro-cyclobutyl)-6-(3-(5-isoprop-oxypyridin-2-yl)-1,2,4-thiadiazol-5-ylamino)-5-isopropyl-nicotinamide]",500 to 5000
4,"COc1ccnc(-c2nsc(Nc3ccc(C(C)C)cn3)n2)c1 [Compound 177, N-(5-isopropyl-pyridin-2-yl)-3-(4-methoxy-pyridin-2-yl)-1,2,4-thiadiazol-5-amine]",< 200
5,"CC(=O)N(C)c1cccnc1Nc1nc(-c2cc3c(cn2)OC(C)(C)C3)ns1 [Compound 271, N-(2-(3-(2,2-dimethyl-2,3-dihydrofuro [2,3-c]pyridin-5-yl)-1,2,4-thiadiazol-5-ylamino)pyridin-3-yl)-N-methylacetamide]",500 to 5000
6,"Cc1cnc(Nc2nc(-c3cc(OC4COC4)ccn3)ns2)c(C(F)(F)F)c1 [Compound 275, N-(5-methyl-3-(trifluoromethyl)pyridin-2-yl)-3-(4-(oxetan-3-yloxy)pyridin-2-yl)-1,2,4-thiadiazol-5-amine]",< 200
7,"COc1ccc(-c2nsc(Nc3ccc(OC(C)C)cn3)n2)nc1 [Compound 215, N-(5-isoprop-oxypyridin-2-yl)-3-(5-methoxy-pyridin-2-yl)-1,2,4-thiadiazol-5-amine]",500 to 5000
8,"CC(C)Oc1ccc(-c2nsc(Nc3ncc(C(F)(F)F)cc3N(C)C(=O)C3CC3)n2)nc1 [Compound 248, N-(2-(3-(5-isopropoxy-pyridin-2-yl)-1,2,4-thiadiazol-5-ylamino)-5-(trifluoro-methyl)pyridin-3-yl)-N-methylcyclo-propanecarbox-amide]",< 200
9,"CC(C)c1cccnc1Nc1nc(-c2ccc(OC3CCN(C4CC4)CC3(F)F)cn2)ns1 (centres unmarked) [Compound 87, 3-(5-(1-cyclo-propyl-3,3-difluoro-piperidin-4-yloxy)pyridin-2-yl)-N-(3-isopropylpyridin-2-yl)-1,2,4-thiadiazol-5-amine]",200 to 500
10,"CC(C)Oc1cnc(-c2nsc(Nc3ncccc3C(=O)N3CCCC3)n2)cc1C(F)(F)F [Compound 251, (2-(3-(5-isopropoxy-4-(trifluoromethyl)pyridin-2-yl)-1,2,4-thiadiazol-5-ylamino)pyridin-3-yl) (pyrrolidin-1-yl)methanone]",500 to 5000
11,"CC(C)Oc1ccc(-c2nsc(Nc3ncccc3N3CCCC3=O)n2)nc1 [Compound 178, 1-(2-(3-(5-isopropoxy-pyridin-2-yl)-1,2,4-thiadiazol-5-ylamino)pyridin-3-yl)pyrrolidin-2-one]",500 to 5000
12,"CC(=O)N(C)c1cccnc1Nc1nc(-c2ccc(NC34CC(C3)C4)cn2)ns1 [Compound 207, N-(2-(3-(5-(bicyclo [1.1.1]pentan-1-ylamino)pyridin-2-yl)-1,2,4-thiadiazol-5-ylamino)pyridin-3-yl)-N-methylacetamide]",500 to 5000
13,"Cc1cc(C#N)cnc1Nc1nc(-c2ccc(OC(C)C)cn2)ns1 [Compound 231, 6-(3-(5-isoprop-oxypyridin-2-yl)-1,2,4-thiadiazol-5-ylamino)-5-methyl-nicotinonitrile]",200 to 500
14,"FC(F)(F)c1cncc(Nc2nc(-c3ccccn3)ns2)c1 [Cmpd 3, 3-(pyridin-2-yl)-N-(5-(trifluoromethyl)pyridin-3-yl)-1,2,4-thiadiazol-5-amine]",500 to 5000
15,"CC(C)Oc1ccc(-c2nsc(Nc3ncccc3N(C)C(=O)C3CCCC3)n2)nc1 [Compound 172, N-(2-(3-(5-isopropoxy-pyridin-2-yl)-1,2,4-thiadiazol-5-ylamino)pyridin-3-yl)-N-methylcyclo-pentane-carboxamide]",200 to 500
16,"COc1ccc(-c2nsc(Nc3ccc(C(F)(F)F)cn3)n2)nc1 [Compound 209, 3-(5-methoxy-pyridin-2-yl)-N-(5-(trifluoromethyl)pyridin-2-yl)-1,2,4-thiadiazol-5-amine]",500 to 5000
17,"Cc1cccnc1Nc1nc(-c2cc(C(F)(F)F)c(OCC3CC3)cn2)ns1 [Compound 110, 3-(5-(cyclo-propylmethoxy)-4-(trifluoromethyl)pyridin-2-yl)-N-(3-methyl-pyridin-2-yl)-1,2,4-thiadiazol-5-amine]",200 to 500
18,"FC(F)(F)c1cccnc1Nc1nc(-c2cc(C3CC3)ccn2)ns1 [Compound 84, 3-(4-cyclopropyl-pyridin-2-yl)-N-(3-(trifluoromethyl)pyridin-2-yl)-1,2,4-thiadiazol-5-amine]",< 200
19,"Cc1cccnc1Nc1nc(-c2ccc(OC3CC3)cn2)ns1 [Compound 38, 3-(5-cyclo-propoxypyridin-2-yl)-N-(3-methyl-pyridin-2-yl)-1,2,4-thiadiazol-5-amine]",200 to 500
20,"COc1cnc(Nc2nc(-c3cc(C(=O)N(C)C)c(OC(C)C)cn3)ns2)c(C(F)(F)F)c1 [Compound 264, 5-isopropoxy-2-(5-(5-methoxy-3-(trifluoro-methyl)pyridin-2-ylamino)-1,2,4-thiadiazol-3-yl)-N,N-dimethyliso-nicotinamide]",200 to 500
21,"CC(C)c1ccnc(-c2nsc(Nc3cc(C(F)(F)F)ccn3)n2)c1 [Compound 86, 3-(4-isopropyl-pyridin-2-yl)-N-(4-(trifluoromethyl)pyridin-2-yl)-1,2,4-thiadiazol-5-amine]",< 200
22,"CC(C)Oc1cnc(-c2nsc(Nc3ncccc3N3CCCC3=O)n2)cc1C(F)(F)F [Compound 179, 1-(2-(3-(5-isopropoxy-4-(trifluoromethyl)pyridin-2-yl)-1,2,4-thiadiazol-5-ylamino)pyridin-3-yl)pyrrolidin-2-one]",500 to 5000
23,"CC(=O)N(C)c1cc(C(F)(F)F)cnc1Nc1nc(-c2cc3c(cn2)OC(C)(C)C3)ns1 [Compound 272, N-(2-(3-(2,2-dimethyl-2,3-dihydrofuro [2,3-c]pyridin-5-yl)-1,2,4-thiadiazol-5-ylamino)-5-(trifluoromethyl)pyridin-3-yl)-N-methylacetamide]",< 200
